Data as given in PubChem BioAssay AID2060890 (Molecular Pharmacology Branch, DTP, NCI, 2025).
Values joined by “and” are separate entries in the source; they are usually repeats but may differ in a detail not shown here. Identical values can stand only once.

System: LG0703-F948-PDC complex spheroid viability
Assay: Anticancer human tumor LG0703-F948-PDC patient-derived lung adenocarcinoma cell line growth inhibition [RAS]
Settings: for viability, T/C: stronger effect = lower value
Summary of the method: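 Agents were tested in combination matrices in half-log decrements from a top concentration at or near clinical Cmax (10 microM if undetermined). Targets were multi-cell spheroids of tumour lines plus HUVEC and MSC stromal cells.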

[1] = curve of first compound, second compound 0.000949 µM
[2] = curve of first compound, second compound 0.003 µM
[3] = curve of first compound, second compound 0.00949 µM
[4] = curve of first compound, second compound 0.03 µM
[5] = curve of first compound, second compound 0.0949 µM
[6] = curve of first compound, second compound 0.3 µM
[7] = second compound 0.000949 µM, first compound 0.0316 µM
[8] = second compound 0.000949 µM, first compound 0.1 µM
[9] = second compound 0.000949 µM, first compound 0.316 µM
[10] = second compound 0.000949 µM, first compound 1 µM
[11] = second compound 0.000949 µM, first compound 3.16 µM
[12] = second compound 0.000949 µM, first compound 10 µM
[13] = second compound 0.003 µM, first compound 0.0316 µM
[14] = second compound 0.003 µM, first compound 0.1 µM
[15] = second compound 0.003 µM, first compound 0.316 µM
[16] = second compound 0.003 µM, first compound 1 µM
[17] = second compound 0.003 µM, first compound 3.16 µM
[18] = second compound 0.003 µM, first compound 10 µM
[19] = second compound 0.00949 µM, first compound 0.0316 µM
[20] = second compound 0.00949 µM, first compound 0.1 µM
[21] = second compound 0.00949 µM, first compound 0.316 µM
[22] = second compound 0.00949 µM, first compound 1 µM
[23] = second compound 0.00949 µM, first compound 3.16 µM
[24] = second compound 0.00949 µM, first compound 10 µM
[25] = second compound 0.03 µM, first compound 0.0316 µM
[26] = second compound 0.03 µM, first compound 0.1 µM
[27] = second compound 0.03 µM, first compound 0.316 µM
[28] = second compound 0.03 µM, first compound 1 µM
[29] = second compound 0.03 µM, first compound 3.16 µM
[30] = second compound 0.03 µM, first compound 10 µM
[31] = second compound 0.0949 µM, first compound 0.0316 µM
[32] = second compound 0.0949 µM, first compound 0.1 µM
[33] = second compound 0.0949 µM, first compound 0.316 µM
[34] = second compound 0.0949 µM, first compound 1 µM
[35] = second compound 0.0949 µM, first compound 3.16 µM
[36] = second compound 0.0949 µM, first compound 10 µM
[37] = second compound 0.3 µM, first compound 0.0316 µM
[38] = second compound 0.3 µM, first compound 0.1 µM
[39] = second compound 0.3 µM, first compound 0.316 µM
[40] = second compound 0.3 µM, first compound 1 µM
[41] = second compound 0.3 µM, first compound 3.16 µM
[42] = second compound 0.3 µM, first compound 10 µM
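Further: spheroids exposed to agents for 7 days.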
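Wherever viability, T/C is given: 100% = DMSO vehicle wells.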

Cc1nc(N2CCC3(CC2)COC(C)C3N)c(CO)nc1Sc1ccnc(N)c1Cl (stereo not drawn) + CCn1c(-c2cccnc2C(C)OC)c2c3cc(ccc31)N1CCOC(CC(NC(=O)C(C(C)C)N(C)C(=O)C3(F)CCN(C(=O)C#CC(C)(C)N(C)C)CC3)C(=O)N3CCCC(N3)C(=O)OCC(C)(C)C2)C1
IC50 [1]: 548 nM
IC50 [2]: 337 nM
IC50 [3]: 402 nM
IC50 [4]: 390 nM
IC50 [5]: 140 nM
IC50 [6]: < 31.6 nM
viability, T/C [7]: 100%
viability, T/C [8]: 68.4%
viability, T/C [9]: 61.6%
viability, T/C [10]: 43.1%
viability, T/C [11]: 24.8%
viability, T/C [12]: 13%
viability, T/C [13]: 87.8%
viability, T/C [14]: 76%
viability, T/C [15]: 47.8%
viability, T/C [16]: 31.7%
viability, T/C [17]: 24.4%
viability, T/C [18]: 11.9%
viability, T/C [19]: 93.1%
viability, T/C [20]: 74.8%
viability, T/C [21]: 52.7%
viability, T/C [22]: 36.9%
viability, T/C [23]: 21.5%
viability, T/C [24]: 13.6%
viability, T/C [25]: 70.2%
viability, T/C [26]: 58.6%
viability, T/C [27]: 52.1%
viability, T/C [28]: 42.4%
viability, T/C [29]: 16.9%
viability, T/C [30]: 12.7%
viability, T/C [31]: 73.2%
viability, T/C [32]: 56.8%
viability, T/C [33]: 35.2%
viability, T/C [34]: 23.2%
viability, T/C [35]: 13.5%
viability, T/C [36]: 5.55%
viability, T/C [37]: 34.1%
viability, T/C [38]: 26.7%
viability, T/C [39]: 22.8%
viability, T/C [40]: 14.3%
viability, T/C [41]: 6.25%
viability, T/C [42]: 3.6%

NC1c2ccccc2OC12CCN(c1cnc3c(N4CCCc5ncccc54)n[nH]c3n1)CC2 (stereo not drawn)
viability, T/C (compound 0.0316 µM): 50.5% [middle of 4 runs]
viability, T/C (compound 0.1 µM): 31.6% [middle of 4 runs]
viability, T/C (compound 0.316 µM): 20.4% [middle of 4 runs]
viability, T/C (compound 1 µM): 13.1% [middle of 4 runs]
viability, T/C (compound 3.16 µM): 5.94% [middle of 4 runs]
viability, T/C (compound 10 µM): 2.92% [middle of 4 runs]
IC50 (curve of compound): < 31.6 nM and 59 nM

C[C@@H](NC(=O)c1ncnc(N)c1Cl)c1ncc(C(=O)Nc2cc(C(F)(F)F)c(Cl)cn2)s1 + CCn1c(-c2cc(N3CCN(C)CC3)cnc2C(C)OC)c2c3cc(ccc31)-c1csc(n1)CC(NC(=O)C1CC1C)C(=O)N1CCCC(N1)C(=O)OCC(C)(C)C2
IC50 [1]: > 10000 nM
IC50 [2]: > 10000 nM
IC50 [3]: < 31.6 nM
IC50 [4]: < 31.6 nM
IC50 [5]: < 31.6 nM
IC50 [6]: < 31.6 nM
viability, T/C [7]: 74.7%
viability, T/C [8]: 78.6%
viability, T/C [9]: 79.2%
viability, T/C [10]: 76.4%
viability, T/C [11]: 83.9%
viability, T/C [12]: 75.6%
viability, T/C [13]: 54.3%
viability, T/C [14]: 46.9%
viability, T/C [15]: 52.8%
viability, T/C [16]: 65.1%
viability, T/C [17]: 55.5%
viability, T/C [18]: 68.9%
viability, T/C [19]: 31.6%
viability, T/C [20]: 28.8%
viability, T/C [21]: 28.1%
viability, T/C [22]: 30.3%
viability, T/C [23]: 33.8%
viability, T/C [24]: 39.8%
viability, T/C [25]: 17.5%
viability, T/C [26]: 17.6%
viability, T/C [27]: 16.1%
viability, T/C [28]: 17%
viability, T/C [29]: 21.2%
viability, T/C [30]: 21.5%
viability, T/C [31]: 15.8%
viability, T/C [32]: 9.99%
viability, T/C [33]: 11.8%
viability, T/C [34]: 13.7%
viability, T/C [35]: 15.9%
viability, T/C [36]: 13.7%
viability, T/C [37]: 11.7%
viability, T/C [38]: 11.5%
viability, T/C [39]: 13.1%
viability, T/C [40]: 9.77%
viability, T/C [41]: 14.9%
viability, T/C [42]: 15.3%

CC(=O)OC12COC1CC(O)C1(C)C(=O)C(O)C3=C(C)C(OC(=O)C(O)C(NC(=O)OC(C)(C)C)c4ccccc4)CC(O)(C(OC(=O)c4ccccc4)C21)C3(C)C (stereo not drawn) + CCn1c(-c2cc(N3CCN(C)CC3)cnc2C(C)OC)c2c3cc(ccc31)-c1csc(n1)CC(NC(=O)C1CC1C)C(=O)N1CCCC(N1)C(=O)OCC(C)(C)C2
IC50 [1]: < 31.6 nM
IC50 [2]: < 31.6 nM
IC50 [3]: < 31.6 nM
IC50 [4]: < 31.6 nM
IC50 [5]: < 31.6 nM
IC50 [6]: < 31.6 nM
viability, T/C [7]: 37.4%
viability, T/C [8]: 33.5%
viability, T/C [9]: 37.2%
viability, T/C [10]: 30.1%
viability, T/C [11]: 25.9%
viability, T/C [12]: 19.9%
viability, T/C [13]: 23.8%
viability, T/C [14]: 17%
viability, T/C [15]: 23%
viability, T/C [16]: 15.7%
viability, T/C [17]: 12.3%
viability, T/C [18]: 14.2%
viability, T/C [19]: 11.2%
viability, T/C [20]: 13.6%
viability, T/C [21]: 12.8%
viability, T/C [22]: 12%
viability, T/C [23]: 7.75%
viability, T/C [24]: 7.15%
viability, T/C [25]: 6.77%
viability, T/C [26]: 7.29%
viability, T/C [27]: 9.54%
viability, T/C [28]: 7.24%
viability, T/C [29]: 6.73%
viability, T/C [30]: 4.63%
viability, T/C [31]: 7.39%
viability, T/C [32]: 5.34%
viability, T/C [33]: 4.2%
viability, T/C [34]: 4.62%
viability, T/C [35]: 4%
viability, T/C [36]: 2.6%
viability, T/C [37]: 9.13%
viability, T/C [38]: 5.01%
viability, T/C [39]: 3.87%
viability, T/C [40]: 4.26%
viability, T/C [41]: 3.58%
viability, T/C [42]: 2.37%
